Results from patent US20110281852A1 (priority 2010, published 2011).

Columns and labels:
PPARγ = assay: Real-Time RT-PCR, PPARγ mRNA in epididymal fat of FD mice; type: in vivo, mouse
Experimental: (§1) RNA and protein purification and quantification from epididymal fat tissues: RNA and protein was isolated from 60 mg of epididymal fat tissues with Trizol (Invitrogen, Carlsbad, Calif., USA) following the protocol recommended by the manufacturers. RNA was dissolved in pure water and quantified at 260/280 nm, and sample integrity was checked by 1.5% agarose gel electrophoresis. Protein concentration was determined using the Micro BCA Protein Assay Kit (Fisher Scientific, Pittsburgh, Pa., USA) according to the manufacturer's instructions.
Quantitative Real-Time RT-PCR: Real-Time reverse transcriptase polymerase chain reaction (RT-PCR) analysis was used to measure mRNA expression of genes PPARγ, C/EBPα, GATA-2 and GATA-3 in the control of β-actin. Total RNA (0.8 μg) from each sample was used for a reverse transcription reaction using the TaqMan Reverse Transcription Reagents (Applied Biosystems, Foster City, Calif., USA) following the manufacturer's instructions. PCR was done using the SYBR green Master Mix (Applied Biosystems, Foster City, Calif., USA) following the manufacturer's instructions. The cycling conditions of amplification were as follows: an initial step of denaturation at 95° C. for 10 min, 40 cycles of denaturation at 95° C. for 30 s, annealing at 55° C. for 30 s, and elongation at 72° C. for 30 s. Real-Time PCR was performed using Mx3000P Real-Time Thermocyclers (Stratagene, La Jolla, Calif., USA). The relative mRNA levels of these genes were calculated by 2-delta delta CT method and normalized with control-treated groups.

C/EBPα = assay: Immunoblot, C/EBPα protein in epididymal fat of FD mice; type: in vivo, mouse; details: berberine treatment
Experimental: as §1
Immunoblot Analysis: Protein expression of GATA-2, GATA-3, PPARγ and C/EBPα in the control of β-actin was assessed by Western Blot. Protein samples from the same group were homogenized as previously reported (Hu and Davies, Phytomedicine (2009) 16:864-873). Protein (25 μg) was separated by polyacrylamide gel electrophoresis using the BioRad Electrophoretic System (60 V for 1 h followed by 90 V for 5 h). The proteins were then transferred to nitrocellulose membranes at 35 V overnight. […]

3T3-L1 cells = assay: Quantitative Oil Red O staining, 3T3-L1 adipocyte differentiation (Example 1); type: cell-based, mouse; details: for reduction in fat droplets: 6 days post differentiation induction
Experimental: Oil-Red-O Staining: Oil-Red-O Staining was performed as previously described (Liu et al. 2004). Images were obtained using an Olympus IX70 inverted microscope (Tokyo, Japan). Quantification Oil-Red-O Staining of cells was carried out as described (Furuyashiki et al., Biosci Biotechnol Biochem (2004) 68:[…]).
Standard Oil Red O staining was then used to examine the extent of differentiation process at days 2, 4, 6, and 8 using microscopy. […] (FIG. 4).

GATA-2 = assay: Immunoblot, GATA-2 protein in HWP; type: cell-based, human; details: day 15
Experimental: Immunoblot Analysis: Protein expression of GATA-2, GATA-3, PPARγ and C/EBPα were assessed by Western Blot. Total proteins were isolated from HWP treated with compounds or vehicles on day 15. The cells were washed twice with PBS, lysed in a lysis buffer containing HEPES-Tx-PI buffer: […] HEPES, 5 mM EDTA, 350 mM Sucrose, 1 μg/ml leupeptin, 1 μg/ml pepstatin, 1% Triton-X, 1 mM PMSF), processed with a 25G needle and centrifuged at 10,000 rpm for 5 min. Protein concentration was determined using the Micro BCA Protein Assay Kit (Fisher Scientific, Pittsburgh, Pa., USA) according to the manufacturers instructions. 20 μg proteins were loaded and separated by electrophoresis using the BioRad Electrophoretic System (60 V for 1 hour followed by 90 V for 5 hours). The proteins were then transferred to nitrocellulose membranes at 35 V overnight. The membrane was blocked for 1 hour at room temperature in 5% nonfat milk in Tris-buffered saline (TBS), then washed with Tween-20-TBS (TTBS, 0.1% Tween-20) three times (15 min, 5 min, 5 min), followed by incubation with primary antibodies human GATA-2, GATA-3, PPARγ, C/EBPα and β-actin (dilution 1:200) (all antibodies were purchased from Santa Cruz Biotechnology, Santa Cruz, Calif., USA) at room temperature for 2 hours. The membrane was rinsed three times (15 min, 5 min, 5 min), then incubated at room temperature for 1 hour with Horseradish peroxidase-conjugated second antibody (1:10,000). The membrane was then incubated in ECL reagent (GE Healthcare, Piscataway, N.J., USA) for 1 minute. Protein was visualized using the UVP image analysis system (UVP, Upland, Calif., USA).

[1] = system: SERT (serotonin transporter); assay: Real-Time RT-PCR, SERT mRNA in RN46A cells; type: cell-based
Experimental: Realtime RT-PCR: Real-Time reverse transcriptase polymerase chain reaction (RT-PCR) analysis was used to measure mRNA expression of SERT under the control of β-actin. Briefly, total RNA was isolated from RN46A cells following treatment with Trizol reagent (Invitrogen, Carlsbad, Calif., USA) according to the manufacturer's instruction. […] 0.8 μg of total RNA from each sample was used for reverse transcription reaction using the TaqMan Reverse Transcription Reagents (Applied Biosystems, Foster City, Calif., USA) following the manufacturer's instructions. PCR was done using the SYBR green Master Mix (Applied Biosystems, Foster City, Calif., USA) following the manufacturer's instructions. The temperature cycling conditions of amplification were as follows: an initial step of denaturation at 95° C. for 10 min, 40 cycles of denaturation at 95° C. for 30 s, annealing at 55° C. for 30 s, and elongation at 72° C. for 30 s. Real-Time RT-PCR was performed using Mx3000P Real-Time Thermocyclers (Statagene, La Jolla, Calif., USA).

Q: Which “reduction of PPARγ mRNA expression vs control treated group” value (“reduction of PPARγ mRNA expression” below) (PPARγ; 0.75 mg/kg/day) does the source give for `COc1ccc2cc3[n+](cc2c1OC)CCc1cc2c(cc1-3)OCO2.[Cl-]` [berberine, Berberine (Chloride Form)] here?
A: 56.1%

Q: What about the “reduction of PPARγ mRNA expression” value (PPARγ; 1.5 mg/kg/day) of the same molecule?
A: 57.7%

Q: And the “reduction of PPARγ mRNA expression” value (PPARγ; 3 mg/kg/day)?
A: 78.3%

Q: And the “quantitative protein expression of CEBP-α” value (C/EBPα)?
A: did not appear to be significantly changed

Q: And the “reduction in fat droplets” value (3T3-L1 cells; 1 μM)?
A: 30.6%

Q: What about the “reduction in fat droplets” value (3T3-L1 cells; 2 μM) of the same molecule?
A: 35.8%

Q: And the “reduction in fat droplets” value (3T3-L1 cells; 4 μM)?
A: 40%

Q: What about the “reduction in fat droplets” value (3T3-L1 cells; 8 μM) of the same molecule?
A: 48.6%

Q: And the inhibition at 1 µM (3T3-L1 cells; Mus musculus, 3T3-L1, 192 h, 1 μM, 8 days, fully differentiated cells, read-out: inhibition of fat amount)?
A: 59.4%

Q: And the inhibition at 2 µM (3T3-L1 cells; Mus musculus, 3T3-L1, 192 h, 2 μM, 8 days, fully differentiated cells, read-out: inhibition of fat amount)?
A: 58.4%

Q: What about the inhibition at 4 µM (3T3-L1 cells; Mus musculus, 3T3-L1, 192 h, 4 μM, 8 days, fully differentiated cells, read-out: inhibition of fat amount) of the same molecule?
A: 71.8%

Q: And the inhibition at 8 µM (3T3-L1 cells; Mus musculus, 3T3-L1, 192 h, 8 μM, 8 days, fully differentiated cells, read-out: inhibition of fat amount)?
A: 72.6%

Q: For evodiamine, which “GATA-2 protein expression relative to β-actin, normalized with controls” value (GATA-2; 1 μM) is on record?
A: 2.44 fold

Q: And the “GATA-2 protein expression relative to β-actin, normalized with controls” value (GATA-2; 2 μM)?
A: 4.81 fold

Q: What about the “GATA-2 protein expression relative to β-actin, normalized with controls” value (GATA-2; 4 μM) of the same molecule?
A: 4.92 fold

Q: And the “increase of SERT mRNA expression vs control group” value ([1]; 2 μM evodiamine)?
A: 2.5 fold

Q: What about the “increase of SERT mRNA expression vs control group” value ([1]; 4 μM evodiamine) of the same molecule?
A: 1.7 fold
